Test results as given in US11492338B2, “Furan surfactant compositions and methods” (SIRONIX RENEWABLES, INC., priority 2020, dated 2022).
Values after ≈ are worked out from the molar mass of the structure shown. Where two headings read alike, the source gives them in different places. Marks after values point to notes of the source that are not given here.

Experiments:
Krafft point = assay type: physicochemical
Method: (§1) Synthesized surfactants including the structure depicted in Experimental Structure 1, as well as the corresponding Na, Li, NH4, and Mg surfactants, were tested to determine surfactant properties. These included the time required for the surfactant solution to wet cotton fabric, the amount of foam the surfactant generates when agitated, the tolerance of the surfactant to calcium ions in solution as a measure of surfactant performance in hard water, and the temperature below which the surfactant forms a solid precipitate, known as the Krafft Point.

[1] = Calcium tolerance (Ca^2+ from CaCl2 until sustained precipitate); assay type: physicochemical; conditions: ppm of Ca^2+ from CaCl2 where sustained precipitate is noted; for Calcium Tolerance: Table 2; for Ca^2+ Tolerance: Table 3
Method: as §1

[2] = Surface tension at critical micelle concentration; assay type: physicochemical
[3] = Solubility in deionized water at 20° C.; assay type: physicochemical
[4] = Critical micelle concentration (CMC); assay type: physicochemical
[5] = Stability tracking of oleo-furan sulfonic acid by liquid chromatography; assay type: physicochemical; conditions: 8-week time course, room temperature and elevated temperature (42° C.)
Text: Another advantage of surfactant embodiments disclosed herein is their inherent stability, particularly in the acid form prior to neutralization (oleo-furan sulfonic acids). As noted elsewhere herein, structural stability is an issue in the production of the common anionic surfactant SLES, causing occasional ring closure of the labile ethoxy chain during ethoxylation and sulfation step, which leads to the formation of a carcinogenic byproduct (e.g., 1,4-dioxane).
The calcium and magnesium monoanionic surfactants were both observed to have high foaming and foam stability, which is attractive for a number of applications including home cleaning, personal care, detergents, cosmetics, ore floatation and oil recovery. […] Stability of the oleo-furan surfactant, specifically the acid form oleo-furan sulfonic acid that is a precursor to the calcium and other cation surfactants, was measured over an eight week time course at room temperature and elevated temperatures, the results of which can be seen in FIG. 1.

[6] = water; common sodium surfactants; cited from earlier work

| Molecule | Krafft Point (Krafft point; Table 2) [°C] | Calcium Tolerance [1] | Surface Tension at critical micelle concentration ([2]; Table 2) [mN/m] | CMC (critical micelle concentration) ([4]; Table 2) [ppm] | Solubility ([3]; Table 2) [mg/mL] | also measured |
| --- | --- | --- | --- | --- | --- | --- |
| CCCCCCCCCCCC(=O)c1cc(S(=O)(=O)O)c(C)o1 [Ca^2+] | <0 | >50,000 ppm | 33 | 300 | – | Solubility ([3]; Table 2, read-out: Solubility): 350 mg/mL (≈ 1020 mM) |
| CCCCCCCCCCCC(=O)c1cc(S(=O)(=O)[O-])c(C)o1.[Li+] [Li^+] | <0 | >50,000 ppm | 45 | 1347 | 300 | – |
| CCCCCCCCCCCC(=O)c1cc(S(=O)(=O)[O-])c(C)o1.CCCCCCCCCCCC(=O)c1cc(S(=O)(=O)[O-])c(C)o1.[Mg+2] [Mg^2+] | 20 | >50,000 ppm | – | – | 10 | Surface Tension ([2]; Table 2, recorded for saturated surfactant solution at 20° C.): 38* mN/m |
| CCCCCCCCCCCC(=O)c1cc(S(=O)(=O)O)c(C)o1.N [NH4^+] | <0 | >50,000 ppm | 39 | 3309 | 1000 | – |
| CCCCCCCCCCCC(=O)c1ccc(S(=O)(=O)[O-])o1.[Na+] [Na^+ OFS-12-1/0] | – | – | – | – | – | Krafft Point (Krafft point; Table 3): <0 °C; Ca^2+ Tolerance [1]: >50,000 ppm; Surface Tension at critical micelle concentration ([2]; Table 3): 44 mN/m; CMC (critical micelle concentration) ([4]; Table 3): 1735 ppm |
| CCCCCCCCCCCC(=O)c1cc(S(=O)(=O)[O-])c(C)o1.[Na+] [Na^+] | <0 | >50,000 ppm | 42 | 1480 | – | Krafft Point (Krafft point; Table 3): <0 °C; Ca^2+ Tolerance [1]: >50,000 ppm; Surface Tension at critical micelle concentration ([2]; Table 3): 42 mN/m; CMC (critical micelle concentration) ([4]; Table 3): 1480 ppm |
| CCCCCCCCCCCCOCCOCCOCCOS(=O)(=O)[O-].[Na+] [SLES, sodium lauryl ether sulfate, reference compound] | <0 | >50,000 ppm | 32 | 449 | ≥1000 | – |
| CCCCCCCCCCCC(=O)c1cc(S(=O)(=O)O)c(C)o1 [oleo-furan sulfonic acids] | – | – | – | – | – | degradation or byproduct formation by liquid chromatography [5]: negligible degradation or byproduct formation |
| sodium dodecylbenzene sulfonate | – | – | – | – | – | Solubility [6]: 250 mg/mL |
